Measurements reported in patent EP0908457B1, “3-(1,2-benzisothiazol- and isoxazol-5-Y1)-2,4(1H,3H)-pyrimidinedione or thione and 3-(1,2-benzisothiazol- and isoxazol-5-y1)-4(3H)-pyrimidinone or thione herbicidal agents” (BASF AKTIENGESELLSCHAFT, priority 1997, dated 1999).

Experiments:
[1] = tested on: Echinochloa oryzoides (Ard.) Fritsch.; test: Preemergence weed control under flooded paddy conditions, ECHORC (Watergrass (Calif.)); assay type: in vivo; details: flooded paddy; for ECHORC: preemergence weeds, herbicidal effect rating 0-9, three to four weeks after treatment; for herbicidal effect rating, ECHORC: preemergence, rated three to four weeks after treatment; on herbicidal effect rating, ECHORC: meaning of each grade not given here
[2] = tested on: Cyperus iria; test: Preemergence weed control under flooded paddy conditions, CYPIR (Rice Flatsedge); assay type: in vivo; details: flooded paddy; for CYPIR: preemergence weeds, herbicidal effect rating 0-9, three to four weeks after treatment; for herbicidal effect rating, CYPIR: preemergence, rated three to four weeks after treatment; on herbicidal effect rating, CYPIR: meaning of each grade not given here
[3] = tested on: Cyperus serotinus, Rottb.; test: Preemergence weed control under flooded paddy conditions, CYPSE (Flatsedge); assay type: in vivo; details: for CYPSE: preemergence weeds, herbicidal effect rating 0-9, three to four weeks after treatment; for herbicidal effect rating, CYPSE: preemergence, rated three to four weeks after treatment; on herbicidal effect rating, CYPSE: meaning of each grade not given here
[4] = tested on: Monochoria vaginalis, Presl.; test: Preemergence weed control under flooded paddy conditions, MOOVA (Monochoria); assay type: in vivo; details: flooded paddy; for MOOVA: preemergence weeds, herbicidal effect rating 0-9, three to four weeks after treatment; for herbicidal effect rating, MOOVA: preemergence, rated three to four weeks after treatment; on herbicidal effect rating, MOOVA: meaning of each grade not given here
[5] = tested on: Sagittaria pygmaea, L.; test: Preemergence weed control under flooded paddy conditions, SAGPY (Arrowhead (Pygmaea)); assay type: in vivo; details: flooded paddy; for SAGPY: preemergence weeds, herbicidal effect rating 0-9, three to four weeks after treatment; for herbicidal effect rating, SAGPY: preemergence, rated three to four weeks after treatment; on herbicidal effect rating, SAGPY: meaning of each grade not given here
[6] = tested on: Oryza sativa, (L.) Tebonnet; test: Rice tolerance to post-transplant applications under flooded paddy conditions (Example 187), ORYSAT (Rice, Tebonnet); details: for ORYSAT: herbicidal effect rating 0-9, three to four weeks after treatment; for herbicidal effect rating ORYSAT: rated three to four weeks after treatment; on herbicidal effect rating ORYSAT: meaning of each grade not given here

For `Cn1c(C(F)(F)F)cc(=O)n(-c2ccc3snc(C4(C#N)CC4)c3c2)c1=O` [Example 446, Cyclopropanecarbonitrile, 1-{5-[3,6-dihydro-3-methyl-2,6-dioxo-4-(trifluoromethyl)-1(2H)-pyrimidinyl]-1,2-benzisothiazol-3-yl}-], the ECHORC ([1]; 0.0320 kg/ha) was 6.0, the ECHORC ([1]; 0.0620 kg/ha) was 6.0 and the ECHORC ([1]; 0.1250 kg/ha) was 7.0. For the same compound, the ECHORC ([1]; 0.2500 kg/ha) was 9.0, the CYPIR ([2]; 0.0320 kg/ha) was 9.0 and the CYPIR ([2]; 0.0620 kg/ha) was 9.0. It also gave a CYPIR ([2]; 0.1250 kg/ha) of 9.0, a CYPIR ([2]; 0.2500 kg/ha) of 9.0 and a CYPSE ([3]; 0.0320 kg/ha) of 9.0. The CYPSE ([3]; 0.0620 kg/ha) was 9.0, the CYPSE ([3]; 0.1250 kg/ha) was 9.0 and the CYPSE ([3]; 0.2500 kg/ha) was 9.0. It also gave an MOOVA ([4]; 0.0320 kg/ha) of 9.0, an MOOVA ([4]; 0.0620 kg/ha) of 9.0 and an MOOVA ([4]; 0.1250 kg/ha) of 9.0. The MOOVA ([4]; 0.2500 kg/ha) was 9.0, the SAGPY ([5]; 0.0320 kg/ha) was 9.0 and the SAGPY ([5]; 0.0620 kg/ha) was 9.0. The SAGPY ([5]; 0.1250 kg/ha) was 9.0, the SAGPY ([5]; 0.2500 kg/ha) was 9.0 and the ORYSAT ([6]; 0.0320 kg/ha) was 6.0. The ORYSAT ([6]; 0.0620 kg/ha) was 7.0, the ORYSAT ([6]; 0.1250 kg/ha) was 9.0 and the ORYSAT ([6]; 0.2500 kg/ha) was 9.0.
For `Cc1ccc(C=C(C#N)c2nsc3ccc(-n4c(=O)cc(C(F)(F)F)n(C)c4=O)cc23)cc1` [Example 597, 1,2-Benzisothiazole-3-acetonitrile, 5-[3,6-dihydro-3-methyl-2,6-dioxo-4-(trifluoromethyl)-1(2H)-pyrimidinyl]-alpha-(p-methylbenzylidene)-], the “herbicidal effect rating, ECHORC” value ([1]; Rate 0.0320 kg/ha) was 4.0, the “herbicidal effect rating, ECHORC” value ([1]; Rate 0.0620 kg/ha) was 6.0 and the “herbicidal effect rating, ECHORC” value ([1]; Rate 0.1250 kg/ha) was 7.0. For the same compound, the “herbicidal effect rating, ECHORC” value ([1]; Rate 0.2500 kg/ha) was 9.0, the “herbicidal effect rating, CYPIR” value ([2]; Rate 0.0320 kg/ha) was 0.0 and the “herbicidal effect rating, CYPIR” value ([2]; Rate 0.0620 kg/ha) was 0.0. The “herbicidal effect rating, CYPIR” value ([2]; Rate 0.1250 kg/ha) was 0.0, the “herbicidal effect rating, CYPIR” value ([2]; Rate 0.2500 kg/ha) was 0.0 and the “herbicidal effect rating, CYPSE” value ([3]; Rate 0.0320 kg/ha) was 0.0. For the same compound, the “herbicidal effect rating, CYPSE” value ([3]; Rate 0.0620 kg/ha) was 0.0, the “herbicidal effect rating, CYPSE” value ([3]; Rate 0.1250 kg/ha) was 0.0 and the “herbicidal effect rating, CYPSE” value ([3]; Rate 0.2500 kg/ha) was 0.0. For the same compound, the “herbicidal effect rating, MOOVA” value ([4]; Rate 0.0620 kg/ha) was 4.0, the “herbicidal effect rating, MOOVA” value ([4]; Rate 0.2500 kg/ha) was 4.0 and the “herbicidal effect rating, SAGPY” value ([5]; Rate 0.0320 kg/ha) was 0.0. For the same compound, the “herbicidal effect rating, SAGPY” value ([5]; Rate 0.0620 kg/ha) was 0.0, the “herbicidal effect rating, SAGPY” value ([5]; Rate 0.1250 kg/ha) was 0.0 and the “herbicidal effect rating, SAGPY” value ([5]; Rate 0.2500 kg/ha) was 0.0. For the same compound, the “herbicidal effect rating ORYSAT” value ([6]; Rate 0.0320 kg/ha) was 0.0, the “herbicidal effect rating ORYSAT” value ([6]; Rate 0.0620 kg/ha) was 0.0 and the “herbicidal effect rating ORYSAT” value ([6]; Rate 0.1250 kg/ha) was 0.0. The “herbicidal effect rating ORYSAT” value ([6]; Rate 0.2500 kg/ha) was 0.0.
With `Cn1c(C(F)(F)F)cc(=O)n(-c2cc3c(C(Br)Br)nsc3cc2F)c1=O` [Example 372, 2,4(1H,3H)-Pyrimidinedione, 3-[3-(dibromomethyl)-6-fluoro-1,2-benzisothiazol-5-yl]-1-methyl-6-(trifluoromethyl)-] the “herbicidal effect rating, ECHORC” value ([1]; Rate 0.0320 kg/ha) was 9.0, the “herbicidal effect rating, ECHORC” value ([1]; Rate 0.0620 kg/ha) was 9.0 and the “herbicidal effect rating, ECHORC” value ([1]; Rate 0.1250 kg/ha) was 9.0. For the same compound, the “herbicidal effect rating, ECHORC” value ([1]; Rate 0.2500 kg/ha) was 9.0, the “herbicidal effect rating, CYPIR” value ([2]; Rate 0.0320 kg/ha) was 8.5 and the “herbicidal effect rating, CYPIR” value ([2]; Rate 0.0620 kg/ha) was 9.0. The “herbicidal effect rating, CYPIR” value ([2]; Rate 0.1250 kg/ha) was 9.0, the “herbicidal effect rating, CYPIR” value ([2]; Rate 0.2500 kg/ha) was 9.0 and the “herbicidal effect rating, CYPSE” value ([3]; Rate 0.0320 kg/ha) was 1.0. For the same compound, the “herbicidal effect rating, CYPSE” value ([3]; Rate 0.0620 kg/ha) was 5.0, the “herbicidal effect rating, CYPSE” value ([3]; Rate 0.1250 kg/ha) was 8.5 and the “herbicidal effect rating, CYPSE” value ([3]; Rate 0.2500 kg/ha) was 9.0. For the same compound, the “herbicidal effect rating, MOOVA” value ([4]; Rate 0.0320 kg/ha) was 9.0, the “herbicidal effect rating, MOOVA” value ([4]; Rate 0.0620 kg/ha) was 9.0 and the “herbicidal effect rating, MOOVA” value ([4]; Rate 0.1250 kg/ha) was 9.0. The “herbicidal effect rating, MOOVA” value ([4]; Rate 0.2500 kg/ha) was 9.0, the “herbicidal effect rating, SAGPY” value ([5]; Rate 0.0320 kg/ha) was 8.5 and the “herbicidal effect rating, SAGPY” value ([5]; Rate 0.0620 kg/ha) was 9.0. For the same compound, the “herbicidal effect rating, SAGPY” value ([5]; Rate 0.1250 kg/ha) was 9.0, the “herbicidal effect rating, SAGPY” value ([5]; Rate 0.2500 kg/ha) was 9.0 and the “herbicidal effect rating ORYSAT” value ([6]; Rate 0.0320 kg/ha) was 6.0. The “herbicidal effect rating ORYSAT” value ([6]; Rate 0.0620 kg/ha) was 8.0, the “herbicidal effect rating ORYSAT” value ([6]; Rate 0.1250 kg/ha) was 8.0 and the “herbicidal effect rating ORYSAT” value ([6]; Rate 0.2500 kg/ha) was 9.0.
